Data published in patent US20020002171A1, “Materials and methods for killing nematodes and nematode eggs” (priority 2000, published 2002).

Tested on: Caenorhabditis elegans
Assay: C. elegans L1 nematicidal dose response in 96-well plates, 5 day visual score (Example 2; same procedure for Example 7, Table 3)
Assay type: in vivo
Set-up: key to 5 Day Visual Score V1 / 5 Day Visual Score V2 / 5 Day Visual Score V3 / 5 Day Visual Score V4 / 5 Day Visual Score V6 / 5 Day Visual Score V5 / Initial HTS Run Visual Score / Follow-up HTS Run Visual Score: Dead: only stiff L1s (no movement); Dead (L4): worms are dead, but at a later larval stage; majority of worms are L1 (based on size) worms move when plate is tapped; majority of worms are L2 (based on size); majority of worms are L3 (based on size); majority of worms are L4 (based on size); AD: majority of worms are adult; #AD: 5 adult worms or less; B!: sterile (0-25 progeny); B: low broodsize (25-100 progeny); ˜B: moderate broodsize (100-250 progeny); <: reduced broodsize (250-500 progeny); OK: no effect (˜1000+ progeny)
Method: Caenorhabditis elegans adults were grown on Nematode Growth Medium (NGM) until they produced eggs, then the adults were removed.
The eggs were allowed to hatch, and the L1 larvae collected. See The Nematode Caenorhabditis elegans (1988) Cold Spring Harbor Laboratory Press. Using a Matrix Programmable Pipette, the L1s were distributed into 96-well tissue culture plates, 20 L1 in 50 μl NGM per well. Antibiotic/Antimyoticwas added to each well, and 1% by weight E. coli strain HB101. The subject anthelmintic compounds were stored at 5 mM in 100% DMSO. 0.7 μl of compounds 1-31 were added to the left-most column of wells to yield a final concentration of 70 μM in 1.4% DMSO, with 1.4% DMSO only as the control. The compounds were then subjected to 5 more 3-fold dilutions from left to right to yield 6 column concentrations of 70 μM, 23.3 μM, 7.8 μM, 2.6 μM, 0.9 μM, and 0.3 μM. Plates were stored in air-tight Rubbermaid plastic boxes at 20° C. The nematodes had cleared all control wells by day 4, and nematode viability was scored by visual examination under a 100× dissecting microsope on day 5. A visual viability scoring system was used as follows:
Column V1 has a compound concentration of 70 μM with sequential 3-fold dilutions reported in columns V2, V3, V4, V5, and V6, respectively, such that the V6 concentration was 0.3 μM.
The nematicidal activity of anthelmintic Compositions 48-168 were determined in accordance with the procedure outlined in Example 2.

[1] = dose response, dilution V1, day 5
[2] = dose response, dilution V3, day 5
[3] = dose response, dilution V4, day 5
[4] = dose response, dilution V5, day 5
[5] = dose response, dilution V6, day 5
[6] = 0.9 μM, C. elegans L1, scored day 5
[7] = 23.3 μM, C. elegans L1, scored day 5
[8] = 70 μM, C. elegans L1, scored day 5
[9] = dose response, dilution V2, day 5
[10] = 0.3 μM, C. elegans L1, scored day 5
[11] = 2.6 μM, C. elegans L1, scored day 5
[12] = 7.8 μM, C. elegans L1, scored day 5
[13] = dose response, dilution V1, 5 day
[14] = dose response, dilution V2, 5 day
[15] = dose response, dilution V6, 5 day

Compound	Follow-up HTS Run % Run	Follow-up HTS Run Visual Score	Follow-up HTS Run mOD	Initial HTS Run % Run	Initial HTS Run Visual Score	Initial HTS Run mOD	5 Day Visual Score V1 [1]	5 Day Visual Score V3 [2]	5 Day Visual Score V4 [3]	5 Day Visual Score V5 [4]	5 Day Visual Score V6 [5]	5 Day Visual Score V2 [9]	further results
CCCCCCCCCCCCCCCCCCN(C)c1nc(N2CCN(c3c(C)cccc3C)CC2)ns1 [compound 229]	81%	5AD/B	130 mOD	125%	Dead	137 mOD	Dead	#AD/˜B	OK (no effect (˜1000+ progeny))	OK (no effect (˜1000+ progeny))	OK (no effect (˜1000+ progeny))	–	–
Fc1ccc(N2CCN(c3nc(NCc4ccc(C(F)(F)F)cc4)ns3)CC2)cc1 [AKC 135]	–	–	–	–	–	–	–	–	–	–	–	–	5 Day Visual Score V5 [6]: ˜B (moderate broodsize (100-250 progeny)); 5 Day Visual Score V2 [7]: L1; 5 Day Visual Score V1 [8]: Dead
CCCN(CC1CC1)c1nc(N2CCN(c3ncccn3)CC2)ns1 [compound 222]	126%	–	203 mOD	106%	L2-Dead L3?	117 mOD	#AD/˜B	OK (no effect (˜1000+ progeny))	OK (no effect (˜1000+ progeny))	OK (no effect (˜1000+ progeny))	OK (no effect (˜1000+ progeny))	OK (no effect (˜1000+ progeny))	–
Cc1cccc(C)c1N1CCN(c2nc(NCCC(c3ccccc3)c3ccccc3)ns2)CC1 [compound 287]	88%	–	142 mOD	128%	–	141 mOD	Dead	–	OK (no effect (˜1000+ progeny))	OK (no effect (˜1000+ progeny))	OK (no effect (˜1000+ progeny))	B (low broodsize (25-100 progeny))	–
OCC1CCCN(c2nc(NCc3ccccc3)ns2)C1 (stereo not shown) [compound 263]	104%	–	167 mOD	110%	–	121 mOD	–	OK (no effect (˜1000+ progeny))	OK (no effect (˜1000+ progeny))	OK (no effect (˜1000+ progeny))	OK (no effect (˜1000+ progeny))	˜B (moderate broodsize (100-250 progeny))	–
COc1ccccc1-c1noc(C(C)CNC(=O)Nc2ccc(OC(F)(F)F)cc2)n1 (stereo not shown) [AKC 111]	–	–	–	–	–	–	–	–	–	–	–	–	5 Day Visual Score V6 [10]: OK (no effect (˜1000+ progeny)); 5 Day Visual Score V4 [11]: Dead(L3/L; 5 Day Visual Score V3 [12]: L2; 5 Day Visual Score V2 [7]: Dead; 5 Day Visual Score V1 [8]: Dead
CCCCC(CC)CN(CC(CC)CCCC)c1nc(NCc2ccc(C(F)(F)F)cc2)ns1 (stereo not shown) [compound 307]	110%	B! (sterile (0-25 progeny))	177 mOD	100%	L4/AD/B	110 mOD	Dead	OK (no effect (˜1000+ progeny))	OK (no effect (˜1000+ progeny))	OK (no effect (˜1000+ progeny))	OK (no effect (˜1000+ progeny))	–	–
O=C(NCCc1ccc(F)cc1)C1C(c2ccccc2Cl)=NOC1c1ccc(-c2ccccc2)cc1 (stereo not shown) [AKC 119]	–	–	–	–	–	–	–	–	–	–	–	–	5 Day Visual Score V6 [10]: < (reduced broodsize (250-500 progeny))
O=C(NCCCCCc1nc(-c2ccccc2)no1)Nc1ccc(OC(F)(F)F)cc1 [AKC 115]	–	–	–	–	–	–	–	–	–	–	–	–	5 Day Visual Score V5 [6]: Dead(L2/L; 5 Day Visual Score V4 [11]: Dead(L2); 5 Day Visual Score V3 [12]: L2/Dead(L2); 5 Day Visual Score V2 [7]: Dead(L2/L3); 5 Day Visual Score V1 [8]: Dead
Cc1cccc(C)c1N1CCN(c2nsc(N3CCN(c4c(C)cccc4C)CC3)n2)CC1 [compound 227]	91%	Dead	146 mOD	107%	Dead	118 mOD	Dead	OK (no effect (˜1000+ progeny))	OK (no effect (˜1000+ progeny))	OK (no effect (˜1000+ progeny))	OK (no effect (˜1000+ progeny))	Dead	–
Cc1cccc(C)c1N1CCN(c2nc(NC3CCCCCCCCCCC3)ns2)CC1 [compound 329]	78%	Dead	125 mOD	100%	Dead (L2/L3)	110 mOD	–	–	–	–	–	–	5 Day Visual Score V1 [13]: Dead; 5 Day Visual Score V2 [14]: Dead; 5 Day Visual Score V4 (dose response, dilution V4, 5 day): OK (no effect (˜1000+ progeny)); 5 Day Visual Score V5 (dose response, dilution V5, 5 day): OK (no effect (˜1000+ progeny)); 5 Day Visual Score V6 [15]: OK (no effect (˜1000+ progeny))
CCCCOc1ccc(C(=O)N2CC(OCCCc3ccccc3)CC2C(=O)NCc2ccccc2Br)cc1 (stereo not shown) [AKC 102]	–	–	–	–	–	–	–	–	–	–	–	–	5 Day Visual Score V6 [10]: B (low broodsize (25-100 progeny)); 5 Day Visual Score V4 [11]: L3
CCCCN(CC)c1nc(N2CCN(c3ncccn3)CC2)ns1 [compound 235]	127%	L2 - 1/2 Dead	205 mOD	128%	Dead (L3?)	141 mOD	Dead	OK (no effect (˜1000+ progeny))	OK (no effect (˜1000+ progeny))	OK (no effect (˜1000+ progeny))	OK (no effect (˜1000+ progeny))	#AD/˜B	–
CCCCOc1ccc(-c2noc(C3CCC(NC(=O)c4ccc5c(c4)OCO5)CC3)n2)cc1 (stereo not shown) [AKC 103]	–	–	–	–	–	–	–	–	–	–	–	–	5 Day Visual Score V6 [10]: < (reduced broodsize (250-500 progeny)); 5 Day Visual Score V5 [6]: L4/#AD/B; 5 Day Visual Score V4 [11]: B (low broodsize (25-100 progeny)); 5 Day Visual Score V3 [12]: Dead(L4); 5 Day Visual Score V2 [7]: Dead(L3/L4)
CN(CCc1ccccc1)c1nc(NCc2ccc(C(F)(F)F)cc2)ns1 [compound 314]	103%	–	166 mOD	106%	–	117 mOD	–	–	–	–	–	–	5 Day Visual Score V1 [13]: L1; 5 Day Visual Score V2 [14]: L4#AD/B! and L1; 5 Day Visual Score V3 (dose response, dilution V3, 5 day): L1; 5 Day Visual Score V6 [15]: OK (no effect (˜1000+ progeny))
